Source: the supplement of paper PMC11061612

Columns and labels:
Experiment in all cases: Bliss excess, mean over the matrix (fraction); higher = more synergy
[1] = system: RL95-2 (Endometrial Carcinoma)
In short: (§1)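 Bliss excess equals the observed combination effect minus the expected value EA + EB − EA·EB, where EA and EB are the effects of each agent alone. Combination Emax is the second-highest inhibition within the matrix. Inhibition was scaled from CellTiter-Glo 2.0 luminescence, with 0 set by vehicle wells and 1 by blank wells, after 72 hours of two-drug dosing of cells plated in 1536-well plates.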

KYM-1 (Rhabdomyosarcoma) = system: KYM-1 (Rhabdomyosarcoma)
In short: as §1

[2] = system: NCI-H196 (Small Cell Lung Carcinoma)
In short: as §1

[3] = system: Calu-6 (Non-Small Cell Lung Carcinoma)
In short: as §1

Structure (SMILES)	Bliss excess [1]	Bliss excess (KYM-1 (Rhabdomyosarcoma))	Bliss excess [2]	Bliss excess [3]
Cc1c2c(nn1C)CSCc1cc(n(C)n1)CSc1cc(c3ccccc3c1)OCCCc1c(C(=O)O)n(C)c3c-2c(Cl)ccc13 [AZD5991] + CN(C)CCCOc1ccc(-c2ccc3ncc4c(c3c2)n(C2CCOCC2)c(=O)n4C)cn1 [AZD0156] (first compound max 1 µM, 7x7, partner max 1 µM)	-0.0252	0.0046	-0.0207	0.0052
Cc1c2c(nn1C)CSCc1cc(n(C)n1)CSc1cc(c3ccccc3c1)OCCCc1c(C(=O)O)n(C)c3c-2c(Cl)ccc13 [AZD5991] + C[C@@H]1COCCN1C2=NC(=NC(=C2)C3(CC3)[S@](=N)(=O)C)C4=C5C=CNC5=NC=C4 [AZD6738] (first compound max 1 µM, 7x7, partner max 10 µM)	-0.0023	0.1	0.0443	0.0282
Cc1c2c(nn1C)CSCc1cc(n(C)n1)CSc1cc(c3ccccc3c1)OCCCc1c(C(=O)O)n(C)c3c-2c(Cl)ccc13 [AZD5991] + C[C@@H](Nc1cc(F)cc(F)c1)c1cc(C(=O)N(C)C)cc2c(=O)cc(N3CCOCC3)oc12 [AZD8186] (first compound max 1 µM, 7x7, partner max 3 µM)	-0.0802	0.0291	-0.0353	-0.0018
Cc1c2c(nn1C)CSCc1cc(n(C)n1)CSc1cc(c3ccccc3c1)OCCCc1c(C(=O)O)n(C)c3c-2c(Cl)ccc13 [AZD5991] + Cc1cc2ncnn2cc1Nc1ncc2c(n1)n(C1CCOCC1)c(=O)n2C [AZD7648] (first compound max 1 µM, 7x7, partner max 10 µM)	-0.0033	0.0136	-0.0431	-0.0338
Cc1c2c(nn1C)CSCc1cc(n(C)n1)CSc1cc(c3ccccc3c1)OCCCc1c(C(=O)O)n(C)c3c-2c(Cl)ccc13 [AZD5991] + Cn1cnc2c(F)c(Nc3ccc(Br)cc3Cl)c(C(=O)NOCCO)cc21 [Selumetinib] (first compound max 1 µM, 7x7, partner max 3 µM)	0.0336	0.0084	-0.0374	0.0572
C[C@@H]1COCCN1c1cc(C2([S@](C)(=N)=O)CC2)nc(-c2ccnc3[nH]ccc23)n1 [AZD6738] + O=C(c1cc(Cc2n[nH]c(=O)c3ccccc23)ccc1F)N1CCN(C(=O)C2CC2)CC1 [Olaparib] (first compound max 10 µM, 7x7, partner max 10 µM)	0.0105	0.0088	0.0275	-0.0679
Cc1cc2ncnn2cc1Nc1ncc2c(n1)n(C1CCOCC1)c(=O)n2C [AZD7648] + C=CCn1c(=O)c2cnc(Nc3ccc(N4CCN(C)CC4)cc3)nc2n1-c1cccc(C(C)(C)O)n1 [AZD1775] (first compound max 10 µM, partner max 1 µM)	-0.0629	0.0302	-0.0249	-0.0282
Cc1cc2ncnn2cc1Nc1ncc2c(n1)n(C1CCOCC1)c(=O)n2C [AZD7648] + CCN(CCO)CCCOc1ccc2c(Nc3cc(CC(=O)Nc4cccc(F)c4)[nH]n3)ncnc2c1 [AZD2811] (first compound max 10 µM, 7x7, partner max 1 µM)	0.0646	0.0571	-0.0181	0.0268
Cc1cc2ncnn2cc1Nc1ncc2c(n1)n(C1CCOCC1)c(=O)n2C [AZD7648] + CN(C)CCCOc1ccc(-c2ccc3ncc4c(c3c2)n(C2CCOCC2)c(=O)n4C)cn1 [AZD0156] (first compound max 10 µM, 7x7, partner max 1 µM)	0.0161	0.0278	-0.0173	0.0024
Cc1cc2ncnn2cc1Nc1ncc2c(n1)n(C1CCOCC1)c(=O)n2C [AZD7648] + C[C@@H]1COCCN1C2=NC(=NC(=C2)C3(CC3)[S@](=N)(=O)C)C4=C5C=CNC5=NC=C4 [AZD6738] (first compound max 10 µM, 7x7, partner max 10 µM)	0.024	0.0015	0.0126	-0.018
Cc1cc2ncnn2cc1Nc1ncc2c(n1)n(C1CCOCC1)c(=O)n2C [AZD7648] + O=C(c1cc(Cc2n[nH]c(=O)c3ccccc23)ccc1F)N1CCN(C(=O)C2CC2)CC1 [Olaparib] (first compound max 10 µM, 7x7, partner max 10 µM)	-0.0444	-0.0078	-0.0435	-0.0391
COc1cccc2c1C(=O)c1c(O)c3c(c(O)c1C2=O)C[C@@](O)(C(=O)CO)C[C@@H]3O[C@H]1C[C@H](N)[C@H](O)[C@H](C)O1 [Doxorubicin] + Cc1cc2ncnn2cc1Nc1ncc2c(n1)n(C1CCOCC1)c(=O)n2C [AZD7648] (first compound max 1 µM, 7x7, partner max 10 µM)	-0.0064	0.0837	-0.0383	0.0914
COc1cccc(OCCCN)c1-c1cc(Nc2cnc(C#N)cn2)n[nH]1 [Prexasertib] + C=CCn1c(=O)c2cnc(Nc3ccc(N4CCN(C)CC4)cc3)nc2n1-c1cccc(C(C)(C)O)n1 [AZD1775] (first compound max 1 µM, partner max 1 µM)	0.108	0.0713	-0.0317	-0.0201
COc1cccc(OCCCN)c1-c1cc(Nc2cnc(C#N)cn2)n[nH]1 [Prexasertib] + CCc1c2c(nc3ccc(O)cc13)-c1cc3c(c(=O)n1C2)COC(=O)[C@]3(O)CC [SN-38] (first compound max 1 µM, 7x7, partner max 0.3 µM)	0.153	-0.0634	0.0391	-0.0116
COc1cccc(OCCCN)c1-c1cc(Nc2cnc(C#N)cn2)n[nH]1 [Prexasertib] + CN(C)CCCOc1ccc(-c2ccc3ncc4c(c3c2)n(C2CCOCC2)c(=O)n4C)cn1 [AZD0156] (first compound max 1 µM, 7x7, partner max 1 µM)	-0.0364	0.0147	-0.0547	-0.0507
COc1cccc(OCCCN)c1-c1cc(Nc2cnc(C#N)cn2)n[nH]1 [Prexasertib] + C[C@@H]1COCCN1C2=NC(=NC(=C2)C3(CC3)[S@](=N)(=O)C)C4=C5C=CNC5=NC=C4 [AZD6738] (first compound max 1 µM, 7x7, partner max 10 µM)	-0.0487	-0.0107	-0.049	-0.0852
COc1cccc(OCCCN)c1-c1cc(Nc2cnc(C#N)cn2)n[nH]1 [Prexasertib] + Cc1cc2ncnn2cc1Nc1ncc2c(n1)n(C1CCOCC1)c(=O)n2C [AZD7648] (first compound max 1 µM, 7x7, partner max 10 µM)	-0.0263	-0.0078	-0.0361	-0.0354
COc1cccc(OCCCN)c1-c1cc(Nc2cnc(C#N)cn2)n[nH]1 [Prexasertib] + O=C(c1cc(Cc2n[nH]c(=O)c3ccccc23)ccc1F)N1CCN(C(=O)C2CC2)CC1 [Olaparib] (first compound max 1 µM, 7x7, partner max 10 µM)	-0.0343	-0.0609	-0.0641	-0.0701
COc1cc2c(cc1OCCCCCOc1cc3c(cc1OC)C(=O)N1C=C(C)C[C@H]1C=N3)N=C[C@@H]1CC(C)=CN1C2=O [SG3199] + O=C(c1cc(Cc2n[nH]c(=O)c3ccccc23)ccc1F)N1CCN(C(=O)C2CC2)CC1 [Olaparib] (first compound max 0.001 µM, 7x7, partner max 10 µM)	-0.0383	-0.0201	-0.0387	-0.013
CCc1c2c(nc3ccc(O)cc13)-c1cc3c(c(=O)n1C2)COC(=O)[C@]3(O)CC [SN-38] + CN(C)CCCOc1ccc(-c2ccc3ncc4c(c3c2)n(C2CCOCC2)c(=O)n4C)cn1 [AZD0156] (first compound max 0.3 µM, 7x7, partner max 1 µM)	0.0502	0.0465	-0.049	0.0491
CC(=O)Nc1cccc(-n2c(=O)n(C3CC3)c(=O)c3c(Nc4ccc(I)cc4F)n(C)c(=O)c(C)c32)c1 [Trametinib] + Cc1nc(-c2cn3c(n2)-c2ccc(-c4cnn(C(C)(C)C(N)=O)c4)cc2OCC3)n(C(C)C)n1 [Taselisib] (first compound max 1 µM, 7x7, partner max 10 µM)	0.0378	0.0424	0.0039	0.168
CC1(C)CCC(CN2CCN(c3ccc(C(=O)NS(=O)(=O)c4ccc(NCC5CCOCC5)c([N+](=O)[O-])c4)c(Oc4cnc5[nH]ccc5c4)c3)CC2)=C(c2ccc(Cl)cc2)C1 [Venetoclax] + C1CN(CCC1(C(=O)N[C@@H](CCO)C2=CC=C(C=C2)Cl)N)C3=NC=NC4=C3C=CN4 [Capivasertib] (first compound max 1 µM, 7x7, partner max 3 µM)	-0.0102	-0.0269	-0.0377	-0.0558
CC1(C)CCC(CN2CCN(c3ccc(C(=O)NS(=O)(=O)c4ccc(NCC5CCOCC5)c([N+](=O)[O-])c4)c(Oc4cnc5[nH]ccc5c4)c3)CC2)=C(c2ccc(Cl)cc2)C1 [Venetoclax] + C=CCn1c(=O)c2cnc(Nc3ccc(N4CCN(C)CC4)cc3)nc2n1-c1cccc(C(C)(C)O)n1 [AZD1775] (first compound max 1 µM, partner max 1 µM)	0.0277	0.0082	-0.0007	-0.0317
CC1(C)CCC(CN2CCN(c3ccc(C(=O)NS(=O)(=O)c4ccc(NCC5CCOCC5)c([N+](=O)[O-])c4)c(Oc4cnc5[nH]ccc5c4)c3)CC2)=C(c2ccc(Cl)cc2)C1 [Venetoclax] + CCN(CCO)CCCOc1ccc2c(Nc3cc(CC(=O)Nc4cccc(F)c4)[nH]n3)ncnc2c1 [AZD2811] (first compound max 1 µM, 7x7, partner max 1 µM)	0.0814	-0.0017	-0.0463	0.0331
CC1(C)CCC(CN2CCN(c3ccc(C(=O)NS(=O)(=O)c4ccc(NCC5CCOCC5)c([N+](=O)[O-])c4)c(Oc4cnc5[nH]ccc5c4)c3)CC2)=C(c2ccc(Cl)cc2)C1 [Venetoclax] + CN(C)CCCOc1ccc(-c2ccc3ncc4c(c3c2)n(C2CCOCC2)c(=O)n4C)cn1 [AZD0156] (first compound max 1 µM, 7x7, partner max 1 µM)	-0.0027	0.013	-0.0333	0.0071
CC1(C)CCC(CN2CCN(c3ccc(C(=O)NS(=O)(=O)c4ccc(NCC5CCOCC5)c([N+](=O)[O-])c4)c(Oc4cnc5[nH]ccc5c4)c3)CC2)=C(c2ccc(Cl)cc2)C1 [Venetoclax] + COc1cc(Nc2ncc3c(n2)-c2ccc(Cl)cc2C(c2c(F)cccc2OC)=NC3)ccc1C(=O)O [Alisertib] (first compound max 1 µM, 7x7, partner max 10 µM)	0.0892	0.0069	-0.0371	-0.0071
